The values below come from US10913734B2, “Substituted aminothiazoles” (BARUCH S. BLUMBERG INSTITUTE, priority 2016, dated 2021).

Each structure is given as a SMILES string.

A short description of data set [1]: MTT cell viability / cytotoxicity assay (CC50), 72 hours. Format: cell-based. To be noted: human, 72 hours incubation, concentration that reduces signal of viable cells by 50%, table title names Huh-7, THLE2 and PH5CH cells, cell line not given. An excerpt: (§1) Huh-7 cells and derived from hepatocellular carcinoma cells, and were donated by Dr. Xuanyong Lu, (Drexel University College of Medicine, Doylestown, Pa.). THLE-2 were purchased from American Type Culture Collection (Manassas, Va.). PH5CH were donated by Dr. Masayuki Noguchi (University of Tsukuba, Ibaraki, Japan). THLE-2 and PH5CH have been immortalized through stable transfection of the SV40 large T antigen in normal hepatocytes, and are thus cell lines that are representative of normal hepatocytes rather than HCC cells. […] All cell lines were cultured and maintained in 5% CO2 at 37° C. Huh-7 were maintained in the culture media DMEM/F12 (Dulbecco's Modified Eagle Medium) with 10% Fetal bovine serum (FBS), 100 µg/mL penicillin, 100 units/mL streptomycin, and 50 µg/mL normocin. THLE-2 and PH5CH were maintained in the culture media Brochial Epithelial Growth Media (BEGM) with 10% FBS, 100 µg/mL penicillin, 100 units/mL streptomycin, with the following additives form the prepackaged kit: Bovine pituitary extract (BPE), insulin, hydrocortisone, retinoic acid, transferrin, triiodothyronine, supplemented with 5 ng/ml human epidermal growth factor and 70 ng/ml phosphoethanolamine (Lonza Walkersville Inc., Walkersville, Md.).
(§2) Huh7 cells were plated on 96-well plates at 2.0×10^4 cells per well to permit grow in the presence of compounds of the disclosure. Compounds of the disclosure were prediluted and transferred to cell plates by automated liquid handling. Cells were incubated with compounds of the disclosure for 72 hours, after which culture growth and viability were assessed by addition of 50 µg/mL 3-(4,5-Dimethyl-2-thiazolyl)-2,5-diphenyl-2H-tetrazolium bromide (MTT) incubation for 4 hours at 37° C. Solubilization buffer (0.01M HCl, 10% SDS) was added followed by incubation at 37° C. overnight. Absorbance was measured at 570 nm (reference 630 nm). Compound of the disclosure were tested in Huh7, THLE-2 and PH5CH, over eight-point dilutions in half-log steps, testing 50.0, 16.6, 5.0, 1.66, 0.5, 0.166, 0.05, and 0.016 µM in 0.5% DMSO, with each concentration in duplicate wells. […] Each compound was tested from 2 to 7 times in separate assay trials.

For data set [2], the system named is THLE2 and/or PH5CH (normal hepatocyte-derived) cell versus Huh7. As to the kind of experiment: Selectivity of cytotoxicity: CC50 in normal hepatocyte-derived cells versus liver cancer derived cells (MTT assay). The format is cell-based. The note with it: ratio of CC50 between Huh7 and THLE2 and/or PH5CH (normal hepatocyte-derived) cell.
Text: as §1
as §2, with “nm).” for “nm). Compound of the disclosure were tested in Huh7, THLE-2 and PH5CH, over eight-point dilutions in half-log steps, testing 50.0, 16.6, 5.0, 1.66, 0.5, 0.166, 0.05, and 0.016 µM in 0.5% DMSO, with each concentration in duplicate wells.”
Selectivity of toxicity in HCC-derived cells over normal liver-derived cells is important for the purposes of developing a therapy that specifically targets the cancer with low toxcity for the […]. The Selective Index (SI) is the ratio of CC50 in normal cells (THLE2 or PHSCH) over the CC50 in the liver cancer derived cells; thus, the higher the number, the lower the potential toxicity at an efficacious dose.
Selectivity in table 6 is defined as the ratio of CC50 between Huh7 and THLE2 and/or PH5CH (normal hepatocyte-derived) cell.

As usually defined, the CC50 is the concentration at which the toxic effect on the cells reaches its halfway point. Low values mean greater toxicity to the cells, high ones lower toxicity to the cells. On to `CCOC(=O)c1sc(NCc2ncccn2)nc1-c1ccccn1` [Entry 17], for which, in data set [1], the CC50 at 72 h is not below 50 µM. Besides, in data set [2], the Selectivity is recorded as not above 5.0.
Compound `CCOC(=O)c1sc(Nc2nccc(C)n2)nc1-c1ncccc1C` [Entry 4] had a CC50 at 72 h in data set [1] not below 50 µM. Further, the Selectivity in data set [2] was not above 5.0.
With `O=C([O-])CCc1sc(NCc2ncccn2)nc1-c1ccccn1.[Na+]` [Entry 14], the Selectivity in data set [2] was not above 5.0.
For the compound `CC(C)OC(=O)c1sc(Nc2ncccn2)nc1-c1ncccn1` [Entry 19], the 50% cytotoxic concentration (CC50) at 72 h in data set [1] was less than 50 µM. The Selectivity in data set [2] is more than 5.0.
For `CC(C)OC(=O)OCN(c1ncccn1)c1nc(-c2cnccn2)c(C(=O)OC(C)C)s1` [Entry 26], the half-maximal cytotoxic concentration (CC50) at 72 h in data set [1] was less than 50 µM. For the same compound, the Selectivity in data set [2] was more than 5.0.
For `O=C(O)CCc1sc(NCc2ncccn2)nc1-c1ccccn1` [Entry 13], in that order: not below 50 µM and not above 5.0.
Consider `O=C(O)CCc1sc(Nc2ncccn2)nc1-c1ccccn1` [Entry 11], for which, in data set [1], the CC50 at 72 h was less than 50 µM. Moreover, the Selectivity in data set [2] was not above 5.0.
In turn, `CCOCc1sc(Nc2ncccn2)nc1-c1ccccn1` [Entry 6] showed a 50% cytotoxic concentration (CC50) at 72 h in data set [1] of less than 50 µM. For the same compound, the Selectivity in data set [2] is more than 5.0.
As to `CC(C)OC(=O)c1sc(Nc2ncccn2)nc1-c1cnccn1` [Entry 25], the CC50 at 72 h in data set [1] is less than 50 µM. For the same compound, in data set [2], the Selectivity was more than 5.0.
For `CCOC(=O)Cc1sc(Nc2nccc(C)n2)nc1-c1ccccn1` [Entry 18], in that order: less than 50 µM and not above 5.0.
For `CCOCc1sc(Nc2nccc(C)n2)nc1-c1ccccn1` [Entry 7], in that order: less than 50 µM and not above 5.0.
For `CC(C)OC(=O)c1sc(N(COP(=O)(OC(C)(C)C)OC(C)(C)C)c2ncccn2)nc1-c1ccccn1` [Entry 27], in that order: less than 50 µM and more than 5.0.
The compound `CC(C)OC(=O)c1sc(N(COP(=O)(OC(C)(C)C)OC(C)(C)C)c2ncccn2)nc1-c1cnccn1` [Entry 28] displayed a CC50 at 72 h in data set [1] of less than 50 µM. The Selectivity in data set [2] is reported as more than 5.0.
Turning to `O=C(Nc1ncccn1)Nc1nc(-c2ccccn2)cs1` [Entry 3], in data set [1], the CC50 at 72 h is not below 50 µM. In addition, the Selectivity in data set [2] is listed as not above 5.0.
For the compound `CCOC(=O)Cc1sc(Nc2ncccn2)nc1-c1ccccn1` [Entry 15], the 50% cytotoxic concentration (CC50) at 72 h in data set [1] was less than 50 µM. Further, in data set [2], the Selectivity is reported as more than 5.0.
For `CCOC(=O)c1sc(Nc2ncccn2)nc1-c1cnccn1` [Entry 20], the CC50 at 72 h in data set [1] is less than 50 µM. Moreover, in data set [2], the Selectivity is on record as more than 5.0.
As to `CCOC(=O)c1sc(NCc2ncccn2)nc1-c1ncccc1C` [Entry 5], the CC50 at 72 h in data set [1] is not below 50 µM. Besides, the Selectivity in data set [2] is not above 5.0.
In data set [1], `CCOC(=O)c1sc(Nc2ncccn2)nc1-c1cc(C(F)(F)F)ccn1` [Entry 24] displayed a CC50 at 72 h of less than 50 µM. Moreover, the Selectivity in data set [2] was more than 5.0.
As for `CCOC(=O)Cc1sc(NCc2ncccn2)nc1-c1ccccn1` [Entry 16], the CC50 at 72 h in data set [1] is less than 50 µM. In data set [2], the Selectivity is listed as not above 5.0.
For `CCOCc1sc(NCc2ncccn2)nc1-c1ccccn1` [Entry 8], in that order: not below 50 µM and not above 5.0.
The like results for `COCCOCN(c1ncccn1)c1nc(-c2cnccn2)c(C(=O)OC(C)C)s1` [Entry 29] were, in that order, not below 50 µM and not above 5.0.
In data set [1], `CCOC(=O)c1sc(Nc2ncccn2)nc1-c1ccncn1` [Entry 23] came in with a half-maximal cytotoxic concentration (CC50) at 72 h of less than 50 µM. Besides, the Selectivity in data set [2] is listed as more than 5.0.
With `CCOC(=O)CCc1sc(NCc2ncccn2)nc1-c1ccccn1` [Entry 10], the cytotoxic concentration (CC50) at 72 h in data set [1] is not below 50 µM. For the same compound, the Selectivity in data set [2] is not above 5.0.
As for `O=C([O-])CCc1sc(Nc2ncccn2)nc1-c1ccccn1.[Na+]` [Entry 12], the Selectivity in data set [2] was not above 5.0.
Compound `CCOC(=O)CCc1sc(Nc2ncccn2)nc1-c1ccccn1` [Entry 9] came in with a CC50 at 72 h in data set [1] of less than 50 µM. The Selectivity in data set [2] was more than 5.0.
Turning to `c1ccc(-c2csc(NCc3ncccn3)n2)nc1` [Entry 2], the CC50 at 72 h in data set [1] is less than 50 µM. The Selectivity in data set [2] is listed as not above 5.0.
For the compound `CC(C)OC(=O)C1=C(c2ccncn2)NC(Nc2ncccn2)S1` (stereo not drawn) [Entry 22], the half-maximal cytotoxic concentration (CC50) at 72 h in data set [1] was less than 50 µM. The Selectivity in data set [2] was more than 5.0.
For `CC(C)OC(=O)c1sc(Nc2ncccn2)nc1-c1ccccn1` [Entry 21], the cytotoxic concentration (CC50) at 72 h in data set [1] was less than 50 µM. The Selectivity in data set [2] is listed as more than 5.0.
